Source: patent publication US6737383B1, “Herbicidal oxadiazolidines” (priority 1999, dated 2004)

Key:
[1] = system: bamyardgrass; experiment: Test B flood test barnyardgrass; format: in vivo, Echinochloa crus-galli; conditions: for Plant response rating, Barnyardgrass (0 to 10 scale, 0 is no effect, 10 is complete control): visual evaluation after twelve to sixteen days
Summary of the method: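 Read-out is a visual response score from 0 (no effect) to 10 (complete control), assigned by comparison with untreated controls. Treatment was applied at the 2-leaf stage, and plants stayed in the greenhouse for twelve to sixteen days before scoring.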

[2] = system: cocklebur; experiment: Test B pre/postemergence cocklebur; format: in vivo, Xanthium strumarium
Summary of the method: (§1)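 Response is a visual 0-to-10 score relative to untreated plants, where 0 means no effect and 10 means complete control, taken twelve to sixteen days after application. Treatments went onto soil at planting and onto foliage of 1- to 4-leaf plants, using a surfactant-containing non-phytotoxic solvent.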

[3] = system: giant foxtail; experiment: Test B pre/postemergence giant foxtail; format: in vivo, Setaria faberii
Summary of the method: as §1

[4] = system: winter barley; experiment: Test E winter barley; format: in vivo, Hordeum vulgare; conditions: Preemergence
[5] = system: morningglory; experiment: Test B pre/postemergence morningglory; format: in vivo, Ipomoea hederacea
Summary of the method: as §1

[6] = system: blackgrass; experiment: Test E blackgrass; format: in vivo, Alopecurus myosuroides; conditions: Preemergence
[7] = system: winter wheat; experiment: Test E winter wheat; format: in vivo, Triticum aestivum; conditions: Preemergence
[8] = system: Italian ryegrass; experiment: Test E Italian ryegrass; format: in vivo, Lolium multiflorum; conditions: Preemergence
[9] = system: winter wheat; experiment: Test E winter wheat; format: in vivo, Triticum aestivum; conditions: Postemergence
Summary of the method: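 Each compound, carried in a non-phytotoxic solvent blend including surfactant, was applied (postemergence: over the top of young plants at 1- to 4-leaf stage). Plants stayed in the greenhouse about 21 to 28 days before visual comparison with untreated controls.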

[10] = system: wild oat; experiment: Test E wild oat; format: in vivo, Avena fatua; conditions: Preemergence
[11] = system: green foxtail; experiment: Test E green foxtail; format: in vivo, Setaria viridis; conditions: Preemergence
[12] = Rate 125 g/ha, Pre-emergence, flood test species, scale 0 to 10 where 0 is no effect and 10 is complete control
[13] = Rate 250 g/ha, Pre-emergence, flood-test species, scale 0 to 10, 0 is no effect, 10 is complete control
[14] = Rate 500 g/ha, Pre-emergence, flood test species, scale 0 to 10 (0 no effect, 10 complete control)
[15] = Preemergence, Rate 500 g/ha, scale of 0 to 10 where 0 is no effect and 10 is complete control
[16] = Rate 62 g/ha, Postemergence, scale 0 to 10, 0 no effect, 10 complete control
[17] = Rate 125 g/ha, Postemergence, scale of 0 to 10 where 0 is no effect and 10 is complete control
[18] = Rate 125 g/ha, Preemergence, scale of 0 to 10 where 0 is no effect and 10 is complete control
[19] = Rate 250 g/ha, Postemergence, scale of 0 to 10 where 0 is no effect and 10 is complete control
[20] = Rate 500 g/ha, Postemergence, scale 0 to 10, 0 no effect, 10 complete control
[21] = Preemergence, Rate 62 g/ha, scale of 0 to 10 where 0 is no effect and 10 is complete control
[22] = Preemergence, Rate 250 g/ha, scale of 0 to 10 where 0 is no effect and 10 is complete control
[23] = Rate 500 g/ha, 0 to 100 scale (0 no effect, 100 complete control)
[24] = Rate 1000 g/ha, 0 to 100 scale, 0 no effect, 100 complete control
[25] = Rate 1000 g/ha, 0 to 100 scale where 0 is no effect and 100 is complete control
[26] = Rate 500 g/ha, 0 to 100 scale, 0 is no effect, 100 is complete control
[27] = Rate 62 g/ha, flood test species, Pre-emergence
[28] = Postemergence, Rate 125 g/ha, scale 0 to 10, 0 is no effect, 10 is complete control
[29] = Preemergence, Rate 62 g/ha, scale 0 to 10 (0 no effect, 10 complete control)
[30] = Rate 62 g/ha, Postemergence, scale of 0 to 10 where 0 is no effect and 10 is complete control
[31] = Rate 250 g/ha, 0 to 100 scale, 0 no effect, 100 complete control
[32] = Rate 250 g/ha, 0 to 100 scale, 0 is no effect, 100 is complete control
[33] = Rate 125 g/ha, 0 to 100 scale (0 no effect, 100 complete control)

CC(C)N(C(=O)n1oc(=O)n(C2CCCC2)c1=O)c1ccc(Cl)cc1 [Compound 282]
0: Plant response rating, Cocklebur [2, 15] | Cocklebur plant response rating [2, 16] | Cocklebur plant response rating [2, 17] | Cocklebur plant response rating [2, 18] | Giant foxtail plant response rating [3, 16] | Giant foxtail plant response rating [3, 17] | Plant response rating, Giant foxtail [3, 19] | Morningglory plant response rating [5, 21] | Morningglory plant response rating [5, 22] | Plant response rating, Morningglory [5, 15] | Morningglory plant response rating [5, 18]
30: Plant response rating, Wheat (winter) [9, 26]
80: Plant response rating, Wild oat [10, 24] | Green foxtail plant response rating (0 to 100 scale) ([11]; Rate 250 g/ha)
7: Barnyardgrass plant response rating ([1]; Rate 62 g/ha, headed Pre-emergence (flood test species), scale 0 to 10 (0 no effect, 10 complete control)) | Barnyardgrass plant response rating [1, 12] | Plant response rating, Morningglory [5, 19]
50: Barley (winter) plant response rating (0 to 100 scale) ([4]; Rate 250 g/ha) | Plant response rating, Barley (winter) [4, 23] | Plant response rating, Wheat (winter) [9, 25]
60: Blackgrass plant response rating (0 to 100 scale) ([6]; Rate 250 g/ha) | Plant response rating, Blackgrass [6, 23] | Wheat (winter) plant response rating (0 to 100 scale) ([7]; Rate 250 g/ha) | Plant response rating, Wheat (winter) [7, 23]
8: Giant foxtail plant response rating [3, 21] | Giant foxtail plant response rating [3, 18]
20: Wheat (winter) plant response rating ([9]; Rate 250 g/ha, 0 to 100 scale where 0 is no effect and 100 is complete control)
6: Morningglory plant response rating [5, 16] | Morningglory plant response rating [5, 17]
9: Barnyardgrass plant response rating [1, 13] | Barnyardgrass plant response rating [1, 14] | Morningglory plant response rating [5, 20]
2: Plant response rating, Cocklebur [2, 19] | Cocklebur plant response rating [2, 20] | Giant foxtail plant response rating [3, 20]
10: Giant foxtail plant response rating [3, 22] | Plant response rating, Giant foxtail [3, 15]
100: Plant response rating, Green foxtail [11, 23] | Plant response rating, Green foxtail [11, 24]
70: Plant response rating, Barley (winter) [4, 24] | Plant response rating, Blackgrass [6, 24] | Plant response rating, Wheat (winter) [7, 24] | I. Ryegrass plant response rating (0 to 100 scale) ([8]; Rate 250 g/ha) | Plant response rating, I. Ryegrass [8, 23] | Plant response rating, I. Ryegrass [8, 24] | Wild oat plant response rating (0 to 100 scale) ([10]; Rate 250 g/ha) | Plant response rating, Wild oat [10, 23]

CC(C)N(C(=O)n1oc(=O)n(C2CCCCCC2)c1=O)c1ccccc1 [Compound 341]
65: Plant response rating, Wheat (winter) [9, 25] | Plant response rating, Wheat (winter) [9, 26]
50: Plant response rating, Wheat (winter) [7, 23] | Plant response rating, I. Ryegrass ([8]; Rate 250 g/ha, 0 to 100 scale)
10: Giant foxtail plant response rating [3, 22] | Giant foxtail plant response rating [3, 15] | Plant response rating, Morningglory [5, 20]
60: Plant response rating, Barley (winter) [4, 23] | Plant response rating, Blackgrass [6, 23] | Plant response rating, Wild oat ([10]; Rate 250 g/ha, 0 to 100 scale)
55: Plant response rating, I. Ryegrass [8, 23] | Plant response rating, I. Ryegrass [8, 24] | Plant response rating, Green foxtail [11, 23]
90: Plant response rating, Blackgrass [6, 24]
7: Plant response rating, Morningglory [5, 28] | Morningglory plant response rating [5, 30]
9: Barnyardgrass plant response rating [1, 13] | Barnyardgrass plant response rating [1, 14] | Plant response rating, Giant foxtail [3, 29] | Giant foxtail plant response rating (0 to 10 scale) ([3]; Preemergence, Rate 125 g/ha)
85: Plant response rating, Wheat (winter) [7, 24] | Plant response rating, Green foxtail [11, 24]
25: Plant response rating, Green foxtail ([11]; Rate 250 g/ha, 0 to 100 scale)
8: Barnyardgrass plant response rating [1, 12]
40: Plant response rating, Blackgrass ([6]; Rate 250 g/ha, 0 to 100 scale) | Plant response rating, Wheat (winter) ([7]; Rate 250 g/ha, 0 to 100 scale)
0: Plant response rating, Cocklebur [2, 28] | Plant response rating, Cocklebur [2, 29] | Cocklebur plant response rating (0 to 10 scale) ([2]; Preemergence, Rate 125 g/ha) | Cocklebur plant response rating [2, 22] | Cocklebur plant response rating [2, 15] | Cocklebur plant response rating [2, 30] | Plant response rating, Giant foxtail [3, 28] | Giant foxtail plant response rating [3, 30] | Plant response rating, Morningglory [5, 29] | Morningglory plant response rating (0 to 10 scale) ([5]; Preemergence, Rate 125 g/ha) | Morningglory plant response rating [5, 22] | Morningglory plant response rating [5, 15]
2: Plant response rating, Barnyardgrass (0 to 10 scale, 0 is no effect, 10 is complete control) [1, 27] | Plant response rating, Giant foxtail [3, 20]
70: Plant response rating, Barley (winter) [4, 31] | Plant response rating, Wheat (winter) [9, 32] | Plant response rating, Wild oat [10, 23]
80: Plant response rating, Barley (winter) [4, 24] | Plant response rating, Wild oat [10, 24]

CC(C)N(C(=O)n1oc(=O)n(C2CCC2)c1=O)c1ccc(F)cc1 [Compound 350]
25: Plant response rating, Barley (winter) [4, 23]
6: Plant response rating, Morningglory [5, 28]
5: Plant response rating, Barnyardgrass ([1]; Rate 500 g/ha, listed under Postemergence (flood test species), scale 0 to 10, 0 no effect, 10 complete control) | Giant foxtail plant response rating [3, 30] | Plant response rating, Barley (winter) [4, 33]
65: Plant response rating, Wild oat [10, 23] | Plant response rating, Green foxtail [11, 33]
40: Plant response rating, Wheat (winter) [7, 33] | Plant response rating, Wheat (winter) ([7]; Rate 250 g/ha, 0 to 100 scale) | Plant response rating, Wheat (winter) [9, 26] | Plant response rating, Wild oat [10, 33]
55: Plant response rating, Green foxtail ([11]; Rate 250 g/ha, 0 to 100 scale)
8: Plant response rating, Giant foxtail [3, 28]
60: Plant response rating, Blackgrass [6, 23] | Plant response rating, I. Ryegrass [8, 33] | Plant response rating, Wild oat ([10]; Rate 250 g/ha, 0 to 100 scale)
30: Plant response rating, Blackgrass ([6]; Rate 250 g/ha, 0 to 100 scale) | Plant response rating, Wheat (winter) [9, 32]
50: Plant response rating, Blackgrass [6, 33] | Plant response rating, Wheat (winter) [7, 23] | Plant response rating, Wheat (winter) ([9]; Rate 125 g/ha, 0 to 100 scale, 0 is no effect, 100 is complete control)
2: Morningglory plant response rating [5, 15]
90: Plant response rating, I. Ryegrass ([8]; Rate 250 g/ha, 0 to 100 scale)
85: Plant response rating, I. Ryegrass [8, 23] | Plant response rating, Green foxtail [11, 23]
0: Plant response rating, Barnyardgrass ([1]; Postemergence (flood test), Rate 125 g/ha, scale 0 to 10, 0 is no effect, 10 is complete control) | Barnyardgrass plant response rating ([1]; Rate 62 g/ha, Postemergence (flood test species), scale of 0 to 10 where 0 is no effect and 10 is complete control) | Plant response rating, Barnyardgrass (0 to 10 scale, 0 is no effect, 10 is complete control) [1, 27] | Barnyardgrass plant response rating [1, 12] | Barnyardgrass plant response rating [1, 13] | Barnyardgrass plant response rating [1, 14] | Plant response rating, Cocklebur [2, 28] | Plant response rating, Cocklebur [2, 29] | Cocklebur plant response rating (0 to 10 scale) ([2]; Preemergence, Rate 125 g/ha) | Cocklebur plant response rating [2, 22] | Cocklebur plant response rating [2, 15] | Cocklebur plant response rating [2, 30] | Plant response rating, Morningglory [5, 29] | Morningglory plant response rating (0 to 10 scale) ([5]; Preemergence, Rate 125 g/ha) | Morningglory plant response rating [5, 22]
3: Plant response rating, Barnyardgrass ([1]; Rate 250 g/ha, Postemergence (flood test species), scale of 0 to 10 where 0 is no effect and 10 is complete control) | Plant response rating, Cocklebur [2, 20] | Morningglory plant response rating [5, 30]
10: Plant response rating, Giant foxtail [3, 29] | Giant foxtail plant response rating (0 to 10 scale) ([3]; Preemergence, Rate 125 g/ha) | Giant foxtail plant response rating [3, 22] | Giant foxtail plant response rating [3, 15] | Plant response rating, Barley (winter) [4, 31]
9: Plant response rating, Giant foxtail [3, 20] | Plant response rating, Morningglory [5, 20]
